According to patent US12544372B2, “Methods of treating rheumatoid arthritis, chronic spontaneous urticaria, and systemic lupus erythematosis using an inhibitor of Bruton's tyrosine kinase” (Genentech, Inc., priority 2019, dated 2026):
Marks after values point to notes of the source that are not given here.

What was measured:
Total IgM = test: RA study biomarker: total IgM; assay type: in vivo, human
Protocol: (§1) […] The biomarkers evaluated in this assessment were chemokine [C-C motif] ligand 4 (CCL4), IL-6, and TNF-like cytokine 1A (TL1A). Total IgM, IgG, rheumatoid factor IgM autoantibody (RF), CCL4, TL1A, IL-6, and anti-CCP autoantibody (ACPA IgG) levels were analyzed with immunoassays. CD19^+ B cells and CD3^+ T cells were measured by flow cytometry. The proportion of patients achieving an ACR50 response at week 12 and the change in DAS28 score by week 12 were assessed relative to seropositivity (RF and/or ACPA positive at baseline) or baseline levels of RF in both cohorts. To select which biomarkers to evaluate in this trial, BTK-dependent myeloid biomarkers were identified using peripheral blood CD14^+ monocytes stimulated with immune-complexes in the presence or absence of a BTK inhibitor. In brief, the expression levels of genes in human monocytes were assayed under conditions of no stimulation; with human serum albumin immune complex stimulation; with stimulation and a low concentration of a BTK inhibitor with similar characteristics to fenebrutinib; or with stimulation and a high concentration of the BTK inhibitor. […] Genes annotated with cytokine activity were selected. The color bar represents normalized gene expression.

[1] = Phase II SLE study: safety
From the text: The safety objective for this study was to evaluate the safety of fenebrutinib given in combination with SOC in patients with moderate to severe active SLE.
An unblinded IMC and Scientific Oversight Committee is used to monitor multiple safety assessments.

CD19+ B cells = test: RA study: peripheral CD19+ B cells (flow cytometry); assay type: in vivo, human
Protocol: (§2) Biomarkers were evaluated in serum or plasma samples at baseline and weeks 1, 4, and 12 in patients with available samples (cohort 1: n=438; cohort 2: n=86). The biomarkers evaluated in this assessment were chemokine [C-C motif] ligand 4 (CCL4), IL-6, and TNF-like cytokine 1A (TL1A). Total IgM, IgG, rheumatoid factor IgM autoantibody (RF), CCL4, TL1A, IL-6, and anti-CCP autoantibody (ACPA IgG) levels were analyzed with immunoassays. CD19^+ B cells and CD3^+ T cells were measured by flow cytometry. The proportion of patients achieving an ACR50 response at week 12 and the change in DAS28 score by week 12 were assessed relative to seropositivity (RF and/or ACPA positive at baseline) or baseline levels of RF in both cohorts. To select which biomarkers to evaluate in this trial, BTK-dependent myeloid biomarkers were identified using peripheral blood CD14^+ monocytes stimulated with immune-complexes in the presence or absence of a BTK inhibitor. In brief, the expression levels of genes in human monocytes were assayed under conditions of no stimulation; with human serum albumin immune complex stimulation; with stimulation and a low concentration of a BTK inhibitor with similar characteristics to fenebrutinib; or with stimulation and a high concentration of the BTK inhibitor. […] Genes annotated with cytokine activity were selected. The color bar represents normalized gene expression.

C4 = test: SLE study biomarker: C4; assay type: in vivo, human
Protocol: (§3) The following biomarkers were explored according to the biomarker objectives provided above in the Study Objectives. In Table 13, biomarkers are measured at baseline and subsequent timepoints during and after treatment. One set of biomarkers evaluated is the plasmablast signature. Plasmablasts are rapidly dividing, short-lived antibody secreting cells. While they represent a small proportion of B cells in the blood, they are responsible for a majority of antibody transcripts found in whole blood mRNA. The plasmablast signature comprises the biomarkers IgJ, Mzbl, and Txndc5. The gene expression of IgJ, Mzbl, and Txndc5 may be measured, for example, a polypeptide expression by evaluating the level of mRNA for said gene in a patient's blood relative to a reference level.

Total IgG = test: RA study biomarker: total IgG; assay type: in vivo, human
Protocol: as §1

[2] = system: Plasmablast signature (IgJ, Mzb1, Txndc5); test: SLE study biomarker: plasmablast signature (RNA from blood); assay type: in vivo, human
Protocol: as §3

RA study: safety = assay type: in vivo, human
From the text: Investigator conducted assessments: Joint counts and Physician's Global Assessment of Arthritis visual analog scale (VAS), safety assessments (adverse events, vital signs, concomitant medications, review of laboratory data). For Cohort 1 only: SC comparator drug injection; For Cohorts 1 and 2: Administration of oral study drug.

CRP = test: RA study: CRP versus baseline; assay type: in vivo, human
Protocol: As used herein, “CRP” refers to C-reactive protein, or the blood test for inflammation in the body which measures C-reactive protein in the blood. CRP, a protein produced in the liver, will increase in concentration in the blood in response to inflammation. CRP may be measured by a “hsCRP” test, which measures high sensitivity CRP. In some embodiments, a positive result for elevated CRP is as measured by hsCRP ≥0.400 mg/dL hsCRP test. In other embodiments, a positive result for elevated CRP is as measured by a hsCRP ≥0.650 mg/dL hsCRP test. CRP tests are widely available from a variety of vendors (LabCorp, Quest Diagnostics, Life Line Screening, etc.).
The specific components of the ACR Assessments used in this study are as follows: Tender/Painful Joint Count (68), Swollen Joint Count (66), Patient's Assessment of Arthritis Pain, Patient's Global Assessment of Arthritis, Physician's Global Assessment of Arthritis, CRP and HAQ-DI.

ACPA IgG = test: RA study biomarker: ACPA IgG; assay type: in vivo, human
Protocol: as §2

CD3+ T cells = test: RA study: CD3+ T cells (flow cytometry); assay type: in vivo, human; settings: cohort 1 and cohort 2, week 1
Protocol: as §2

[3] = cohort 1, 200 mg twice daily, by week 12
[4] = cohort 2, 200 mg twice daily, by week 12

C[C@H]1CN(C2COC2)CCN1c1ccc(Nc2cc(-c3ccnc(N4CCn5c(cc6c5CC(C)(C)C6)C4=O)c3CO)cn(C)c2=O)nc1 [fenebrutinib, (S)-2-(3′-(hydroxymethyl)-1-methyl-5-((5-(2-methyl-4-(oxetan-3-yl)piperazin-1-yl)pyridin-2-yl)amino)-6-oxo-1,6-dihydro-[3,4′-bipyridin]-2′-yl)-7,7-dimethyl-2,3,4,6,7,8-hexahydro-1H-cyclopenta[4,5]pyrrolo[1,2-a]pyrazin-1-one]
Total IgM Reduction as % of Baseline (Total IgM; Cohort 1, 50 mg QD, Week 4): 94% | Total IgM Reduction as % of Baseline (Total IgM; Cohort 1, 50 mg QD, Week 8): 91%* | Total IgM Reduction as % of Baseline (Total IgM; Cohort 1, 50 mg QD, Week 12): 88%* | Total IgM Reduction as % of Baseline (Total IgM; Cohort 1, 150 mg QD, Week 4): 91%* | Total IgM Reduction as % of Baseline (Total IgM; Cohort 1, 150 mg QD, Week 8): 88%* | Total IgM Reduction as % of Baseline (Total IgM; Cohort 1, 150 mg QD, Week 12): 86%* | Total IgM Reduction as % of Baseline (Total IgM; Cohort 1, 200 mg BID, Week 4): 92%* | Total IgM Reduction as % of Baseline (Total IgM; Cohort 1, 200 mg BID, Week 8): 86%* | Total IgM Reduction as % of Baseline (Total IgM; Cohort 1, 200 mg BID, Week 12): 84%* | Total IgM absolute reduction relative to placebo (Total IgM; [3]): -22 mg/dL | Total IgM reduction relative to placebo (Total IgM; [4]): -17 mg/dL | Total number of patients with at least one AE ([1]; 150 mg QD): 77 (89) n (%) | Total number of patients with at least one AE leading to death ([1]; 150 mg QD): 1 (1) n (%) | Total number of patients with at least one Serious AE ([1]; 150 mg QD): 4 (5) n (%) | Total number of patients with at least one AE ([1]; 200 mg BID): 68 (77) n (%) | Total number of patients with at least one AE leading to death ([1]; 200 mg BID): 0 n (%) | Total number of patients with at least one Serious AE ([1]; 200 mg BID): 12 (14) n (%) | ALT and AST elevations ([1]; interim analysis, 200 mg BID arm, some patients): signs of ALT and AST elevations | safety and tolerability ([1]; interim analysis, each dose): safe and well tolerated | peripheral CD19+ B cells relative to placebo (CD19+ B cells; cohort 1 and cohort 2, by week 12): −4-13% | transient increase of peripheral CD19+ B cells relative to placebo (CD19+ B cells; cohort 1 and cohort 2, fenebrutinib treated groups, by week 1): 45-79% | C4, Median Change from Baseline at Week 48 (C4; 150 mg QD): +0.02* g/L | C4, Median Change from Baseline at Week 48 (C4; 200 mg BID): +0.01* g/L | Total IgG Reduction as % of Baseline (Total IgG; Cohort 1, 150 mg QD, Week 4): 97%* | Total IgG Reduction as % of Baseline (Total IgG; Cohort 1, 150 mg QD, Week 8): 94%* | Total IgG Reduction as % of Baseline (Total IgG; Cohort 1, 150 mg QD, Week 12): 95%* | Total IgG Reduction as % of Baseline (Total IgG; Cohort 1, 200 mg BID, Week 4): 95%* | Total IgG Reduction as % of Baseline (Total IgG; Cohort 1, 200 mg BID, Week 8): 92%* | Total IgG Reduction as % of Baseline (Total IgG; Cohort 1, 200 mg BID, Week 12): 93%* | IgG absolute reduction relative to placebo (Total IgG; [3]): -115 mg/dL | IgG reduction relative to placebo (Total IgG; [4]): -101 mg/dL | Plasmablast signature, Median Change from Baseline at Week 48 ([2]; 150 mg QD): −54.3%* | Plasmablast signature, Median Change from Baseline at Week 48 ([2]; 200 mg BID): −51.7%* | overall safety profile (RA study: safety; RA study): comparable to placebo and ADA | Grade 3 LFT elevations (RA study: safety; fenebrutinib arms versus placebo and ADA): numerically more | CRP, % of BL CRP (CRP; Cohort 1, 200 mg BID, Week 8 and Week 12): 59% | CRP levels (CRP; Cohort 2, Week 8 and Week 12): reduced CRP levels | ACPA IgG levels relative to placebo (ACPA IgG; cohort 1): not significantly changed relative to placebo | ACPA IgG levels change (ACPA IgG; cohort 2, 200 mg twice daily, by week 12 (+15% in the placebo group)): −24% | CD3+ T cells relative to placebo (CD3+ T cells): +10-15%
